In PubChem BioAssay AID2060900 (Molecular Pharmacology Branch, DTP, NCI, 2025):

System: 521955-158-R2-J5-PDC complex spheroids, viability
Test: Anticancer human tumor 521955-158-R2-J5-PDC patient-derived pancreatic carcinoma cell line growth inhibition [RAS]
Conditions: for IC50: curve of first compound; for viability, T/C: stronger effect = lower value
Summary of the method: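 Agents were tested in combination matrices in half-log decrements from a top concentration at or near clinical Cmax (10 microM if undetermined). Targets were multi-cell spheroids of tumour lines plus HUVEC and MSC stromal cells.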
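Further: compound exposure lasted seven days before the viability read.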
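Wherever viability, T/C is given: spheroids also contain HUVEC endothelial cells and mesenchymal stem cells as stroma.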

Question: Which IC50 (second compound 0.00316 µM) does the source give for `NC1c2ccccc2OC12CCN(c1cnc3c(N4CCCc5ncccc54)n[nH]c3n1)CC2` (centres undefined) + C=CC(=O)N1CCN(c2nc(OCC3CCCN3C)nc3c(F)c(-c4nc(N)cc(C)c4C(F)(F)F)c(Cl)cc23)C(C)C1 here?
Answer: Its IC50 is > 10000 nM.

Question: What about the IC50 (second compound 0.01 µM) of the same molecule?
Answer: The IC50 was > 10000 nM.

Question: What about the IC50 (second compound 0.0316 µM) of the same molecule?
Answer: Its IC50 is > 10000 nM.

Question: What about the IC50 (second compound 0.1 µM) of the same molecule?
Answer: The IC50 was 10000 nM.

Question: And the IC50 (second compound 0.316 µM)?
Answer: Its IC50 is > 10000 nM.

Question: What about the IC50 (second compound 1 µM) of the same molecule?
Answer: The IC50 was > 10000 nM.

Question: And the viability, T/C (second compound 0.00316 µM, first compound 0.0316 µM)?
Answer: The viability, T/C was 69.6%.

Question: And the viability, T/C (second compound 0.00316 µM, first compound 0.1 µM)?
Answer: The viability, T/C was 69.4%.

Question: And the viability, T/C (second compound 0.00316 µM, first compound 0.316 µM)?
Answer: The viability, T/C was 64.4%.

Question: And the viability, T/C (second compound 0.00316 µM, first compound 1 µM)?
Answer: The viability, T/C was 61.5%.

Question: What about the viability, T/C (second compound 0.00316 µM, first compound 3.16 µM) of the same molecule?
Answer: The viability, T/C was 54.8%.

Question: What about the viability, T/C (second compound 0.00316 µM, first compound 10 µM) of the same molecule?
Answer: Its viability, T/C is 59.3%.

Question: What about the viability, T/C (second compound 0.01 µM, first compound 0.0316 µM) of the same molecule?
Answer: Its viability, T/C is 68%.

Question: And the viability, T/C (second compound 0.01 µM, first compound 0.1 µM)?
Answer: The viability, T/C was 68%.

Question: What about the viability, T/C (second compound 0.01 µM, first compound 0.316 µM) of the same molecule?
Answer: Its viability, T/C is 62.1%.

Question: And the viability, T/C (second compound 0.01 µM, first compound 1 µM)?
Answer: The viability, T/C was 63.2%.

Question: And the viability, T/C (second compound 0.01 µM, first compound 3.16 µM)?
Answer: Its viability, T/C is 53.7%.

Question: What about the viability, T/C (second compound 0.01 µM, first compound 10 µM) of the same molecule?
Answer: The viability, T/C was 65.6%.

Question: What about the viability, T/C (second compound 0.0316 µM, first compound 0.0316 µM) of the same molecule?
Answer: The viability, T/C was 65.8%.

Question: What about the viability, T/C (second compound 0.0316 µM, first compound 0.1 µM) of the same molecule?
Answer: Its viability, T/C is 79.6%.

Question: And the viability, T/C (second compound 0.0316 µM, first compound 0.316 µM)?
Answer: The viability, T/C was 69.1%.

Question: And the viability, T/C (second compound 0.0316 µM, first compound 1 µM)?
Answer: Its viability, T/C is 61.5%.

Question: What about the viability, T/C (second compound 0.0316 µM, first compound 3.16 µM) of the same molecule?
Answer: The viability, T/C was 65.3%.

Question: And the viability, T/C (second compound 0.0316 µM, first compound 10 µM)?
Answer: The viability, T/C was 51.8%.

Question: What about the viability, T/C (second compound 0.1 µM, first compound 0.0316 µM) of the same molecule?
Answer: The viability, T/C was 73%.

Question: And the viability, T/C (second compound 0.1 µM, first compound 0.1 µM)?
Answer: Its viability, T/C is 79.8%.

Question: What about the viability, T/C (second compound 0.1 µM, first compound 0.316 µM) of the same molecule?
Answer: The viability, T/C was 55.1%.

Question: And the viability, T/C (second compound 0.1 µM, first compound 1 µM)?
Answer: Its viability, T/C is 57.7%.

Question: And the viability, T/C (second compound 0.1 µM, first compound 3.16 µM)?
Answer: The viability, T/C was 51.8%.

Question: What about the viability, T/C (second compound 0.1 µM, first compound 10 µM) of the same molecule?
Answer: Its viability, T/C is 58.8%.

Question: And the viability, T/C (second compound 0.316 µM, first compound 0.0316 µM)?
Answer: The viability, T/C was 75.4%.

Question: And the viability, T/C (second compound 0.316 µM, first compound 0.1 µM)?
Answer: Its viability, T/C is 59.2%.

Question: What about the viability, T/C (second compound 0.316 µM, first compound 0.316 µM) of the same molecule?
Answer: The viability, T/C was 58.1%.

Question: What about the viability, T/C (second compound 0.316 µM, first compound 1 µM) of the same molecule?
Answer: Its viability, T/C is 59.5%.

Question: And the viability, T/C (second compound 0.316 µM, first compound 3.16 µM)?
Answer: Its viability, T/C is 46.1%.

Question: What about the viability, T/C (second compound 0.316 µM, first compound 10 µM) of the same molecule?
Answer: Its viability, T/C is 60.5%.

Question: And the viability, T/C (second compound 1 µM, first compound 0.0316 µM)?
Answer: The viability, T/C was 70.3%.

Question: And the viability, T/C (second compound 1 µM, first compound 0.1 µM)?
Answer: Its viability, T/C is 61.4%.

Question: And the viability, T/C (second compound 1 µM, first compound 0.316 µM)?
Answer: Its viability, T/C is 54.7%.

Question: What about the viability, T/C (second compound 1 µM, first compound 1 µM) of the same molecule?
Answer: The viability, T/C was 69.6%.

Question: What about the viability, T/C (second compound 1 µM, first compound 3.16 µM) of the same molecule?
Answer: The viability, T/C was 60.4%.

Question: What about the viability, T/C (second compound 1 µM, first compound 10 µM) of the same molecule?
Answer: The viability, T/C was 58.3%.

Question: `Nc1ccn(C2OC(CO)C(O)C2(F)F)c(=O)n1` (centres undefined) + CCn1c(-c2cccnc2C(C)OC)c2c3cc(ccc31)N1CCOC(CC(NC(=O)C(C(C)C)N(C)C(=O)C3(F)CCN(C(=O)C#CC(C)(C)N(C)C)CC3)C(=O)N3CCCC(N3)C(=O)OCC(C)(C)C2)C1 was tested. Which IC50 (second compound 0.000949 µM) did it give?
Answer: Its IC50 is 156 nM.

Question: What about the IC50 (second compound 0.003 µM) of the same molecule?
Answer: Its IC50 is 204 nM.

Question: What about the IC50 (second compound 0.00949 µM) of the same molecule?
Answer: The IC50 was 251 nM.

Question: And the IC50 (second compound 0.03 µM)?
Answer: The IC50 was 284 nM.

Question: What about the IC50 (second compound 0.0949 µM) of the same molecule?
Answer: Its IC50 is 190 nM.

Question: And the IC50 (second compound 0.3 µM)?
Answer: The IC50 was 109 nM.

Question: And the viability, T/C (second compound 0.000949 µM, first compound 0.00316 µM)?
Answer: The viability, T/C was 112%.

Question: And the viability, T/C (second compound 0.000949 µM, first compound 0.01 µM)?
Answer: Its viability, T/C is 80.2%.

Question: What about the viability, T/C (second compound 0.000949 µM, first compound 0.0316 µM) of the same molecule?
Answer: Its viability, T/C is 75.4%.

Question: What about the viability, T/C (second compound 0.000949 µM, first compound 0.1 µM) of the same molecule?
Answer: Its viability, T/C is 56.8%.

Question: And the viability, T/C (second compound 0.000949 µM, first compound 0.316 µM)?
Answer: The viability, T/C was 51.6%.

Question: And the viability, T/C (second compound 0.000949 µM, first compound 1 µM)?
Answer: Its viability, T/C is 14.4%.

Question: What about the viability, T/C (second compound 0.003 µM, first compound 0.00316 µM) of the same molecule?
Answer: Its viability, T/C is 97.8%.

Question: And the viability, T/C (second compound 0.003 µM, first compound 0.01 µM)?
Answer: Its viability, T/C is 90.3%.

Question: What about the viability, T/C (second compound 0.003 µM, first compound 0.0316 µM) of the same molecule?
Answer: Its viability, T/C is 79.3%.

Question: What about the viability, T/C (second compound 0.003 µM, first compound 0.1 µM) of the same molecule?
Answer: Its viability, T/C is 67.1%.

Question: And the viability, T/C (second compound 0.003 µM, first compound 0.316 µM)?
Answer: The viability, T/C was 39.6%.

Question: And the viability, T/C (second compound 0.003 µM, first compound 1 µM)?
Answer: The viability, T/C was 11.8%.

Question: And the viability, T/C (second compound 0.00949 µM, first compound 0.00316 µM)?
Answer: The viability, T/C was 85.3%.

Question: What about the viability, T/C (second compound 0.00949 µM, first compound 0.01 µM) of the same molecule?
Answer: The viability, T/C was 91%.

Question: And the viability, T/C (second compound 0.00949 µM, first compound 0.0316 µM)?
Answer: The viability, T/C was 75.9%.

Question: What about the viability, T/C (second compound 0.00949 µM, first compound 0.1 µM) of the same molecule?
Answer: Its viability, T/C is 79.8%.

Question: What about the viability, T/C (second compound 0.00949 µM, first compound 0.316 µM) of the same molecule?
Answer: The viability, T/C was 42.6%.

Question: And the viability, T/C (second compound 0.00949 µM, first compound 1 µM)?
Answer: Its viability, T/C is 15.6%.

Question: And the viability, T/C (second compound 0.03 µM, first compound 0.00316 µM)?
Answer: Its viability, T/C is 95.5%.

Question: What about the viability, T/C (second compound 0.03 µM, first compound 0.01 µM) of the same molecule?
Answer: Its viability, T/C is 78.9%.

Question: And the viability, T/C (second compound 0.03 µM, first compound 0.0316 µM)?
Answer: The viability, T/C was 69%.

Question: And the viability, T/C (second compound 0.03 µM, first compound 0.1 µM)?
Answer: Its viability, T/C is 69.4%.

Question: What about the viability, T/C (second compound 0.03 µM, first compound 0.316 µM) of the same molecule?
Answer: The viability, T/C was 53.4%.

Question: What about the viability, T/C (second compound 0.03 µM, first compound 1 µM) of the same molecule?
Answer: The viability, T/C was 10.1%.

Question: And the viability, T/C (second compound 0.0949 µM, first compound 0.00316 µM)?
Answer: The viability, T/C was 79.5%.

Question: What about the viability, T/C (second compound 0.0949 µM, first compound 0.01 µM) of the same molecule?
Answer: Its viability, T/C is 77.9%.

Question: What about the viability, T/C (second compound 0.0949 µM, first compound 0.0316 µM) of the same molecule?
Answer: Its viability, T/C is 62.5%.

Question: What about the viability, T/C (second compound 0.0949 µM, first compound 0.1 µM) of the same molecule?
Answer: Its viability, T/C is 65.2%.

Question: What about the viability, T/C (second compound 0.0949 µM, first compound 0.316 µM) of the same molecule?
Answer: The viability, T/C was 41.2%.

Question: And the viability, T/C (second compound 0.0949 µM, first compound 1 µM)?
Answer: Its viability, T/C is 11.2%.

Question: What about the viability, T/C (second compound 0.3 µM, first compound 0.00316 µM) of the same molecule?
Answer: Its viability, T/C is 72.2%.

Question: What about the viability, T/C (second compound 0.3 µM, first compound 0.01 µM) of the same molecule?
Answer: The viability, T/C was 66.9%.

Question: And the viability, T/C (second compound 0.3 µM, first compound 0.0316 µM)?
Answer: The viability, T/C was 59.6%.

Question: And the viability, T/C (second compound 0.3 µM, first compound 0.1 µM)?
Answer: The viability, T/C was 51.8%.

Question: And the viability, T/C (second compound 0.3 µM, first compound 0.316 µM)?
Answer: Its viability, T/C is 36.5%.

Question: And the viability, T/C (second compound 0.3 µM, first compound 1 µM)?
Answer: Its viability, T/C is 12.6%.
